Measured values: PubChem BioAssay (NCI)
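These data come from cells grown in 96-well plates and exposed to compound for 48 hours at five concentrations. GI50 marks 50% less growth. TGI: concentration producing complete growth inhibition.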

Columns and labels:
Assay in all cases: NCI-60 cell line screen, 48 h
IGROV1 ovarian = tested on: IGROV1 ovarian
RPMI-8226 leukemia = tested on: RPMI-8226 leukemia
MOLT-4 leukemia = tested on: MOLT-4 leukemia
A549 NSCLC = tested on: A549 NSCLC
CCRF-CEM leukemia = tested on: CCRF-CEM leukemia
HOP-92 NSCLC = tested on: HOP-92 NSCLC
A498 renal = tested on: A498 renal
HCC-2998 colon = tested on: HCC-2998 colon
NCI-H460 lung = tested on: NCI-H460 lung
SNB-75 CNS = tested on: SNB-75 CNS

Row | SMILES | TGI (IGROV1 ovarian) [µM] | TGI (RPMI-8226 leukemia) [µM] | TGI (MOLT-4 leukemia) [µM] | TGI (A549 NSCLC) [µM] | TGI (CCRF-CEM leukemia) [µM] | TGI (HOP-92 NSCLC) [µM] | TGI (A498 renal) [µM] | TGI (HCC-2998 colon) [µM] | GI50 (IGROV1 ovarian) [nM] | GI50 (NCI-H460 lung) [nM] | TGI (NCI-H460 lung) [µM] | GI50 (SNB-75 CNS) [µM] | TGI (SNB-75 CNS) [µM] | GI50 (RPMI-8226 leukemia) [µM] | GI50 (MOLT-4 leukemia) [µM] | GI50 (A549 NSCLC) [µM] | GI50 (CCRF-CEM leukemia) [µM] | GI50 (HOP-92 NSCLC) [µM] | GI50 (A498 renal) [µM] | GI50 (HCC-2998 colon) [µM]
1 | Nc1ccc2c(c1)Oc1c(F)c(F)cc3c(=O)c(C(=O)O)cn-2c13 | > 100 | > 100 | > 100 | > 100 | > 100 | 96.9 | 49.7 | > 100 |  |  |  |  |  |  |  |  |  |  |  | 
2 | Cc1cn2c(/C=C3/C(=O)Nc4ccc(F)cc43)c(C)nc2s1 | 25 | > 50 | 33.2 | > 50 | > 50 | 29 | 25.8 |  | 2140 | 2400 | > 50 | 3.76 | 15.6 | 20.3 | 5.02 | 6.37 | 14.8 | 4.74 | 9.59 | 
3 | COc1ccc(CNc2cnc3cc(N)cc(N)c3n2)cc1 | 29 | 82.3 | 43.2 | 54.1 | > 100 | 54.3 |  | 28 | 11200 | 33800 | > 100 | 42.8 | > 100 | 23 | 15.9 | 23 | 24.1 | 24.1 |  | 14.3
4 | COc1ccc(C[C@H](N)C(=O)N2C[C@@H](CO)C[C@@H](n3cnc4c(N(C)C)ncnc43)C2)cc1 | > 100 | > 100 | > 100 | > 100 | > 100 | > 100 |  |  |  |  | > 100 |  |  |  |  |  |  |  |  | 
5 | C=C1C(=O)OC2CC3(C)CCCC(C)C3=CC12 (stereo not drawn) | 22.4 |  | 9.04 | 26.8 | 4.53 | 10.3 | 18.7 | 16.2 |  |  | 13.7 |  | 11.2 |  |  |  |  |  |  | 
6 | N#Cc1cc(NC(=O)c2ccccc2)c(=O)n2c1[nH]c1ccccc12 | > 100 | 38.3 | > 100 | > 100 | > 100 |  | 85.8 | > 100 |  |  | > 100 |  | 68.3 |  |  |  |  |  |  | 
7 | O=C(NNC(=S)Nc1ccccc1)c1ccccn1 | > 100 | 38.4 | > 100 | 47.7 | 25.3 |  | > 100 |  | 3000 | 1060 | > 100 | 5.97 | > 100 | 2.69 | 2.84 | 1.56 | 2.18 |  | 4.55 | 
8 | CC1=C2[C@H](c3ccccc3)C3C=CC2(c2ccccc23)N(C(=O)C(c2ccccc2)c2ccccc2)C1=O (stereo partly drawn) | > 100 |  | > 100 | > 100 | > 100 | > 100 | > 100 | > 100 |  |  | > 100 |  | > 100 |  |  |  |  |  |  | 
9 | CN(C)CCC1(C2=CCCC2)CC/C(=C\c2ccccc2Cl)C1=O (stereo not drawn) | 37.5 | > 100 | 18.3 | 28.4 | 29 | 26.3 | 28.4 | 22.1 |  |  | 31 |  |  |  |  |  |  |  |  | 
